Experimental data as given in patent US9988462B2, “Material and methods for treating or preventing HER-3 associated diseases” (Daiichi Sankyo Europe GmbH, priority 2005, dated 2018).

Key:
rat HER-3 = target: T1, rat HER-3 (Rattus norvegicus, UniProt Q62799); experiment: ELISA cross-reactivity with rat HER-3; assay type: binding
T1 construct: The cDNAs expressing the ECD of human and rat HER-3 were cloned into mammalian expression vectors as V5-His fusion proteins; V5-His; made in house; host or cells: mammalian expression vector; HEK 293T is named only for the chimeras
T1 sequence (Q62799 20-643 limits assumed): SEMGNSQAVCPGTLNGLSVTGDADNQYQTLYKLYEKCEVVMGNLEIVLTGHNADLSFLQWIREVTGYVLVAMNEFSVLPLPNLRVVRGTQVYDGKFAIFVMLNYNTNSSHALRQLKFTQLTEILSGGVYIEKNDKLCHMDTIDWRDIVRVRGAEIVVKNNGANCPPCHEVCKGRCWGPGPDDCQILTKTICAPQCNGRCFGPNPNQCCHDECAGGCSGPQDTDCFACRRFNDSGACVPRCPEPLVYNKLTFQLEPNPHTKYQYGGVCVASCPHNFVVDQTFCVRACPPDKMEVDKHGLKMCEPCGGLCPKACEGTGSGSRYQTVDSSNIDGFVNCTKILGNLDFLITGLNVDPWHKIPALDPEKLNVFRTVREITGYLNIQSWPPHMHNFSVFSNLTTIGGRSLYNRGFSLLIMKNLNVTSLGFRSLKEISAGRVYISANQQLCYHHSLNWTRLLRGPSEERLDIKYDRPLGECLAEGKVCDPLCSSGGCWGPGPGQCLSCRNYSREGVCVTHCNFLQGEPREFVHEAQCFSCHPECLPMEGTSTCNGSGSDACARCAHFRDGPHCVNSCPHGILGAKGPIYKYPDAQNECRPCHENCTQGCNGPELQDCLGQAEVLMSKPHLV
Text: The extra-cellular domain (ECD) of Human HER-3 cDNA was amplified from RAT1-HER-3 cells. The rat HER-3 cDNAs was amplified by RT-PCR from rat liver RNA and confirmed by sequencing. The cDNAs expressing the ECD of human and rat HER-3 were cloned into mammalian expression vectors as V5-His fusion proteins. Domains from the human HER-3 ECD were swapped into the scaffold provided by the rat HER-3 ECD by using the Mfe1, BstX1 and DraIII internal restriction sites. By this means, various chimeric rat/human HER-3 ECD HIS fusion proteins (amino acids 1-160, 161-358, 359-575, 1-358, 359-604) were constructed and expressed via transient transfection of HEK 293T cells. Expression of the constructs was confirmed using a rat polyclonal antibody against human HER-3. The human monoclonal antibodies were tested in ELISA for binding to the secreted chimeric ECDs.

A549 NSCLC xenograft = A549 NSCLC xenograft model; assay type: in vivo, mouse; conditions: vs IgG control or other HER mAbs
Description: (§1) To determine in vivo efficacy, mice bearing ˜200 mm^3 Calu-3 NSCLC xenografts were treated twice a week with anti-HER family inhibitors or control. Other experiments were done with A549 cells.
(§2) Tumor cell colonies formed in the absence of exogenous ligand for 10 days and were stained with MTT and quantified using a Scanalyzer HTS camera imaging system.

Calu-3 NSCLC xenografts = experiment: Calu-3 NSCLC xenograft, U1-59 with panitumumab or erlotinib; assay type: in vivo, mouse; conditions: Calu-3, twice a week; 100 μg U1-59, 100 μg panitumumab, 25 μg erlotinib
Description: as §1

[1] = test system: MDA-MB-175VII breast cancer cells; experiment: Proliferation of MDA-MB-175VII cells (ALOMAR BLUE); assay type: cell-based, human; conditions: four days
Description: After four days, the growth of treated cells was measured with ALOMAR BLUE™.

MDA-MB-435 cells = experiment: Anchorage-independent growth of MDA-MB-435 cells; assay type: cell-based, human; conditions: basal MDA-MB-435
Description: (§3) IgG was used as a negative control for all studies. Tumor cell colonies formed in the absence or presence of HRG for 6 to 10 days and were stained with MTT for 4 to 6 hours and quantified.

A549 cells = experiment: Anchorage-independent growth of A549 cells; assay type: cell-based, human; conditions: A549, 10 μg/mL, 10 days
Text: as §2

BxPC3 [2] = experiment: BxPC3 pancreatic tumor xenograft in SCID mice (established tumors); assay type: in vivo, mouse; conditions: BxPC3, CB17 SCID mice; for tumor growth: 50 mg/kg then 25 mg/kg once weekly i.p.
Description: As controls sets of mice treated with either the vehicle control, PBS, or the established therapeutic antibody, Erbitux, were included. 5×10^6 BxPC3 cells were inoculated subcutaneously without Matrigel into CB17 SCiD mice. […] Thereafter the mice received once weekly 25 mg/kg injections for the duration of the study.

[3] = Serum concentration of U1-59 at necropsy; assay type: in vivo, mouse
Description: (§4) Inhibition of pHER in the BxPC3 xenograft tumors was analyzed by western blotting. A PK/PD/Efficacy model (based on Simeoni et al. (2004) Cancer Res. 64:1094-1101) was used to prospectively select dose and schedule for further testing. To confirm the PK/PD/Efficacy model, BxPC3 pancreatic tumor-bearing mice were treated with 400 μg/mouse biweekly and 200 μg/mouse biweekly, weekly and twice a week. […] The relationship between drug concentration, inhibition of pHER-3 in animals, and interspecies PK scaling was used to select the minimally effective dose for the first in human study.

[4] = target: T2, L1-S1 extra-cellular domains of HER-3 (Homo sapiens, UniProt P21860); experiment: ELISA binding to truncated L1-S1 HER-3 protein
T2 construct: L1 domain (aa 19-184), in the S1 (aa 185-327); V5-His (C); made in house; host or cells: HEK 293T (supernatant)

pHER-3 = pHER-3 in BxPC3 xenograft tumors (quantitative Western blot); assay type: in vivo, mouse; conditions: for inhibition of pHER-3: quantitative Western blot
Description: as §4

BxPC3 [5] = experiment: BxPC3 xenograft in SCID mice, combination with Erbitux; assay type: in vivo, mouse; conditions: BxPC3 with Matrigel, CB17 SCID mice, weekly i.p. for six weeks
Description: 5×10^6 BxPC3 cells were inoculated subcutaneously with Matrigel into CB17 SCID mice. After tumor volumes had reached 200 mm^3, mice were randomized into individual treatment groups. […] All antibodies were dosed at a single loading dose of 50 mg/kg/week, followed by weekly injections of 25 mg/kg for six weeks. Control arms received bi-weekly administrations of Gemcitabine (120 mg/kg), weekly pooled human IgG or weekly vehicle (PBS) injections. The regimens are detailed in TABLE 9 below.

[6] = test system: BxPC3 pancreatic xenografts; experiment: BxPC3 xenograft dose/schedule efficacy (PK/PD/Efficacy model); assay type: in vivo, mouse; conditions: vs IgG control
Description: as §4

[7] = target: T3, reduced, denatured HER-3-His tagged purified ECD protein (Homo sapiens, UniProt P21860); experiment: Dot blot analysis of reduced, denatured HER-3 ECD; assay type: binding
T3 construct: The extracellular domain of HER-3 (ECD) cDNA was cloned by polymerase chain reaction (PCR); His (C); made in house; host or cells: HEK293

[8] = test system: SkBr-3 breast cancer cells; experiment: Anchorage-independent growth of SkBr-3 cells; assay type: cell-based, human
Description: as §3

HCC-1569 = HCC-1569 breast cancer xenograft, U1-59 and lapatinib; assay type: in vivo, mouse; conditions: HCC-1569 xenograft
[9] = Interspecies scaling of U1-59 PK to human; conditions: estimated by interspecies scaling (mice, rat, monkeys)
Description: as §4

[10] = test system: HER3 phosphorylation in A549 cells; experiment: Reactivation study: pHER3 ELISA in A549 cells; assay type: cell-based, human
Description: Experiments were performed in triplicate wells and repeated at least 2 times. Results are expressed as mean±SD.
A549 cells were plated in Ham's F-12 medium (Gibco), all media supplemented with 10% FBS (Hyclone, Logan, Utah) and 1× L-glutamine (Gibco). Cells were serum-starved overnight. […] Cells were washed with cold PBS after their respective treatment time points and lysed using RIPA buffer (20 mM Tris-HCl pH 7.5, 1% Igepal, 1% sodium deoxycholate, 150 mM NaCl, 0.1% SDS, 1% Triton X-100) containing 200 μM phenylmethanesulfonylfluoride (PMSF) (Fluka Biochemica), 200 μM Halt protease inhibitor cocktail kit (Pierce Biotechnology), and 200 μM sodium orthovanadate (Sigma-Aldrich, St. Louis, Mo.). The lysates were passed through QIA shredder columns (Qiagen) and the flow-through quantitated using a spectrophotometer (Beckman Coulter, Fullerton, Calif.). Proteins, 50 μg per well, were analyzed in duplicate for pHER3 using ELISA Duoset (R&D systems) according to manufacturer's protocol.

[11] = test system: HER-3 phosphorylation (pHER-3); experiment: Pharmacodynamic pHER-3 immunoblot of BxPC3 tumor xenografts; assay type: in vivo, mouse; conditions: 500 μg on day 1 and day 4, sacrificed day 5
Description: The inhibition of HER-3 in the human pancreatic tumors could also be shown in a pharmacodynamic experiment. The BxPC3 tumor xenografts were grown as described above. […] The mice were treated on day 1 and day 4 and then sacrificed on day 5 to measure the antibody-dependent inhibition of HER-3 phosphorylation (pHER-3).
The tumors were homogenized in a standard RIPA buffer with protease inhibitors. 50 μg clear lysate was separated on a 4-20% Tris-glycine gel, transferred onto a nitrocellulose membrane and blocked in 3% bovine serum albumin (BSA). Immunoblotting was performed using an anti-pHER-3 antibody (antibody 21D3, Cell Signaling technology). An anti-actin antibody (AB a-2066, Sigma) was used as a control.
Expression was detected by enhanced chemiluminescence (Amersham Biosciences, Piscataway, N.J.). The images were captured with the Versadoc 5000 Imaging System (BioRad, Hercules, Calif.). […] See, FIG. 20 of US Publication No. 20080124345.

[12] = test system: HER-3 phosphorylation in MCF-7 cells; experiment: HRG-β induced HER-3 phosphorylation in MCF-7 cells (ELISA); assay type: cell-based, human; conditions: 10 nM HRG-β for 10 min, read-out: IC50, inhibition of phosphorylation of HER-3
Description: Lysates were transferred to 1B4 (mouse anti-HER-3 mAb) ELISA plates and phosphorylation of HER-3 was analyzed with antibody 4G10. […] See, FIG. 7b of US Publication No. 20080124345.

[13] = A549, 24 hours, 50 μg/ml U1-59, 5 μM gefitinib

In the case of “U1-59: human anti-HER-3 antibody, SEQ ID NO: 70/72”, the “Rat XR (cross-reactive)” value (rat HER-3) is reported as “cross-reacted with rat HER-3 and Yes”, the tumor growth (A549 NSCLC xenograft) is reported as “tumor stasis” and the tumor growth (Calu-3 NSCLC xenografts) is reported as “greatly reduced tumor growth as compared to control”. The “reduction of HRG-stimulated proliferation” value [1] was “up to 40%”, the “colony growth / colony formation” value (MDA-MB-435 cells) was “did not inhibit colony growth” and the “inhibition of colony growth” value (A549 cells) was 50%. The “delay of tumor growth compared with Erbitux” value (BxPC3 [2]) was “more effective than the EGF-R-targeting antibody Erbitux at delaying tumor growth”, the tumor growth (BxPC3 [2]) was “reduced the growth of the human pancreatic tumors in a cytostatic fashion” and the “Serum concentration at necropsy, mean (SD)” value (“Serum concentration … (SD)” for short) ([3]; 200 μg/mouse biweekly) was 0.45 (0.21) μg/mL. The “Serum concentration … (SD)” value ([3]; 200 μg/mouse twice a week) was 34.9 (9.1) μg/mL, the “Serum concentration … (SD)” value ([3]; 200 μg/mouse weekly) was 3.08 (0.82) μg/mL and the “Serum concentration … (SD)” value ([3]; 400 μg/mouse biweekly) was 2.07 (0.97) μg/mL. For the same molecule, the “binding to the L1-S1 protein” value [4] was “bound to the L1-S1 protein”, the “inhibition of pHER-3” value (pHER-3; 200 μg/mouse biweekly) was 58% and the “inhibition of pHER-3” value (pHER-3; 200 μg/mouse twice a week) was 20%. The “inhibition of pHER-3” value (pHER-3; 200 μg/mouse weekly) was 23%, the “inhibition of pHER-3” value (pHER-3; 400 μg/mouse biweekly) was 30% and the “trough concentration needed to achieve 90% maximal pHER-3 inhibition (IC90)” value (pHER-3; BxPC3 xenograft mice, estimated) was about 3 μg/ml. For the same molecule, the tumor growth (BxPC3 [5]) was “delayed the growth of the human pancreatic tumors to the same degree as Gemcitabine”, the “inhibition of tumor growth” value ([6]; 200 μg/mouse biweekly) was 33% and the “inhibition of tumor growth” value ([6]; 200 μg/mouse twice a week) was 70%. For the same molecule, the “inhibition of tumor growth” value ([6]; 200 μg/mouse weekly) was 74%, the “inhibition of tumor growth” value ([6]; 400 μg/mouse biweekly) was 50% and the “binding in dot blot analysis” value [7] was “absence of binding”. For the same molecule, the “inhibition of colony growth” value [8] was 50%, the tumor growth (HCC-1569) was “did not inhibit HCC-1569 tumor growth” and the “clearance (CL) in man” value [9] was 11 mL/day/kg. The “initial volume of distribution (Vd) in man” value [9] was 0.028 L/kg, the HER3 phosphorylation [10, 13] was “greater inhibition of HER phosphorylation that was sustained after 24 hours” and the “phosphorylation of HER-3 in tumors” value [11] was “no longer detectable”.

In the case of `COc1cc2ncnc(Nc3ccc(F)c(Cl)c3)c2cc1OCCCN1CCOCC1` [gefitinib, 4-(3-chloro-4-fluorophenylamino)-7-methoxy-6-[3-(4-morpholinyl)propoxy]quinazoline], the HER3 phosphorylation ([10]; A549, 1 hour, 5 μM gefitinib) is reported as “partial inhibition of HER phosphorylation” and the HER3 phosphorylation [10, 13] is reported as “reversed to control levels after 24 hours”.

In the case of `CS(=O)(=O)CCNCc1ccc(-c2ccc3ncnc(Nc4ccc(OCc5cccc(F)c5)c(Cl)c4)c3c2)o1` [lapatinib, N-[3-chloro-4-[(3-fluorobenzyl)oxy]phenyl]-6-[5-[[[2-(methylsulfonyl)ethyl]amino]methyl]furan-2-yl]quinazolin-4-amine bis(4-methylbenzene-sulfonate)monohydrate, reference compound], the tumor growth (HCC-1569) is reported as “some, but not significant tumor growth inhibition”.

With “panitumumab: fully human monoclonal antibody specific to EGF-R [reference compound]” the tumor growth (Calu-3 NSCLC xenografts) was “greatly reduced tumor growth as compared to control”.

B1: U1-53: anti-HER-3 antibody, SEQ ID NO: 54/56 (antibody, V domains shown)
VH: EVQLVESGGGLVQPGGSLRLSCAASGFTFSIYSMNWVRQAPGKGLEWVSYISSSSSTIYYADSVKGRFTISRDNAKNSLYLQMNSLRDEDTAVYYCARDRGDFDAFDIWGQGTMVTVSS
VL: DIQMTQSPSSLSASVGDRVTITCQASQDITNYLNWYQQKPGKAPKLLIYDASNLETGVPSRFSGSGSGTDFTFTISSLQPEDIATYNCQQCENFPITFGQGTRLEIK
With B1 the “Rat XR (cross-reactive)” value (rat HER-3) was “No”, the “delay of tumor growth compared with Erbitux” value (BxPC3 [2]) was “more effective than the EGF-R-targeting antibody Erbitux at delaying tumor growth” and the tumor growth (BxPC3 [2]) was “reduced the growth of the human pancreatic tumors in a cytostatic fashion”. For the same molecule, the tumor growth (BxPC3 [5]) was “delayed the growth of the human pancreatic tumors to the same degree as Gemcitabine”, the “binding in dot blot analysis” value [7] was “absence of binding” and the IC50 [12] was 0.14 nM.
